Test results: ChEMBL document CHEMBL1201862, “PubChem BioAssay data set” (2004)
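Tested at 5 concentrations; 48 h exposure; 96-well plates; endpoints linearly interpolated, else capped at highest concentration. Abbreviation: GI50, concentration required for 50% inhibition of growth.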 Active and inactive are the calls of the source. No stated cut-off is given here; in the data, active = GI50 up to about 1.1 µM and inactive = higher.

Legend:
Assay in all cases: NCI anticancer screen, dose series, 48 h
SNB-19 = tested on: SNB-19
EKVX = tested on: EKVX
HOP-92 = tested on: HOP-92
ACHN = tested on: ACHN
SW-620 = tested on: SW-620
UO-31 = tested on: UO-31
TK-10 = tested on: TK-10
SF-268 = tested on: SF-268
HL-60 = tested on: HL-60
Hs-578T = tested on: Hs-578T
DU-145 = tested on: DU-145
HOP-62 = tested on: HOP-62
SK-MEL-28 = tested on: SK-MEL-28
K562 = tested on: K562
HCT-15 = tested on: HCT-15
MDA-MB-231 = tested on: MDA-MB-231
U-251 = tested on: U-251
NCI-H23 = tested on: NCI-H23
SK-MEL-2 = tested on: SK-MEL-2
OVCAR-8 = tested on: OVCAR-8
LOX IMVI = tested on: LOX IMVI
OVCAR-4 = tested on: OVCAR-4
HCT-116 = tested on: HCT-116
RXF 393 = tested on: RXF 393
COLO 205 = tested on: COLO 205
MCF7 = tested on: MCF7
UACC-257 = tested on: UACC-257
MDA-MB-435 = tested on: MDA-MB-435
HCC 2998 = tested on: HCC 2998
SR = tested on: SR
SNB-75 = tested on: SNB-75
UACC-62 = tested on: UACC-62
T47D = tested on: T47D
BT-549 = tested on: BT-549
NCI-H460 = tested on: NCI-H460
CCRF-CEM = tested on: CCRF-CEM
NCI-H226 = tested on: NCI-H226
NCI/ADR-RES = tested on: NCI/ADR-RES
KM12 = tested on: KM12
786-0 = tested on: 786-0
MOLT-4 = tested on: MOLT-4
M14 = tested on: M14
SK-MEL-5 = tested on: SK-MEL-5
SF-295 = tested on: SF-295
RPMI-8226 = tested on: RPMI-8226
IGROV-1 = tested on: IGROV-1
PC-3 = tested on: PC-3
SF-539 = tested on: SF-539
SK-OV-3 = tested on: SK-OV-3
CAKI-1 = tested on: CAKI-1
HT-29 = tested on: HT-29
A498 = tested on: A498
MDA-N = tested on: MDA-N
Malme-3M = tested on: Malme-3M
SN12C = tested on: SN12C
A549 = tested on: A549

Question: What does the source list for `NNC(=O)c1cccc2c1Oc1ccccc1S2`?
Answer: GI50 (SNB-19): > 100 µM (inactive); GI50 (EKVX): 23.8 µM (inactive); GI50 (HOP-92): > 100 µM (inactive); GI50 (ACHN): > 100 µM (inactive); GI50 (SW-620): > 100 µM (inactive); GI50 (UO-31): > 100 µM (inactive); GI50 (TK-10): > 100 µM (inactive); GI50 (SF-268): 76.2 µM (inactive); GI50 (HL-60): 79.6 µM (inactive); GI50 (Hs-578T): 31.6 µM (inactive); GI50 (DU-145): 69 µM (inactive); GI50 (HOP-62): 95.9 µM (inactive); GI50 (SK-MEL-28): > 100 µM (inactive); GI50 (K562): > 100 µM (inactive); GI50 (HCT-15): > 100 µM; GI50 (MDA-MB-231): > 100 µM (inactive); GI50 (U-251): > 100 µM (inactive); GI50 (NCI-H23): > 100 µM (inactive); GI50 (SK-MEL-2): > 100 µM (inactive); GI50 (OVCAR-8): 98.6 µM (inactive); GI50 (LOX IMVI): 88.3 µM (inactive); GI50 (OVCAR-4): > 100 µM (inactive); GI50 (HCT-116): > 100 µM (inactive); GI50 (RXF 393): 59.3 µM (inactive); GI50 (COLO 205): > 100 µM (inactive); GI50 (MCF7): > 100 µM (inactive); GI50 (UACC-257): > 100 µM (inactive); GI50 (MDA-MB-435): > 100 µM (inactive); GI50 (HCC 2998): > 100 µM (inactive); GI50 (SR): > 100 µM (inactive); GI50 (SNB-75): 50.6 µM (inactive); GI50 (UACC-62): > 100 µM (inactive); GI50 (T47D): 95.1 µM (inactive); GI50 (BT-549): 97.3 µM (inactive); GI50 (NCI-H460): > 100 µM (inactive); GI50 (CCRF-CEM): 63.1 µM (inactive); GI50 (NCI-H226): 1.23 µM (inactive); GI50 (NCI/ADR-RES): 83.9 µM (inactive); GI50 (KM12): > 100 µM (inactive); GI50 (786-0): > 100 µM (inactive); GI50 (MOLT-4): 55 µM (inactive); GI50 (M14): > 100 µM (inactive); GI50 (SK-MEL-5): > 100 µM (inactive); GI50 (SF-295): 77.3 µM (inactive); GI50 (RPMI-8226): > 100 µM (inactive); GI50 (IGROV-1): > 100 µM (inactive); GI50 (PC-3): > 100 µM (inactive); GI50 (SF-539): > 100 µM (inactive); GI50 (SK-OV-3): 65.2 µM (inactive); GI50 (CAKI-1): > 100 µM (inactive); GI50 (HT-29): > 100 µM (inactive); GI50 (A498): 18.2 µM (inactive)

Question: For `Cc1c(CCN=P(c2ccccc2)(c2ccccc2)c2ccccc2)c(=O)n2c([nH]c3ccccc32)c1C#N`, which GI50 (EKVX) is on record?
Answer: > 10 µM (inactive)

Question: And the GI50 (SW-620)?
Answer: > 10 µM (inactive)

Question: And the GI50 (TK-10)?
Answer: > 10 µM (inactive)

Question: What about the GI50 (SF-268) of the same compound?
Answer: > 10 µM (inactive)

Question: And the GI50 (HL-60)?
Answer: 7.21 µM (inactive)

Question: What about the GI50 (DU-145) of the same compound?
Answer: > 10 µM (inactive)

Question: And the GI50 (HOP-62)?
Answer: > 10 µM (inactive)

Question: And the GI50 (SK-MEL-28)?
Answer: > 10 µM (inactive)

Question: What about the GI50 (K562) of the same compound?
Answer: 8.36 µM (inactive)

Question: What about the GI50 (HCT-15) of the same compound?
Answer: > 10 µM

Question: And the GI50 (MDA-MB-231)?
Answer: > 10 µM (inactive)

Question: And the GI50 (NCI-H23)?
Answer: > 10 µM (inactive)

Question: And the GI50 (OVCAR-8)?
Answer: > 10 µM (inactive)

Question: What about the GI50 (LOX IMVI) of the same compound?
Answer: > 10 µM (inactive)

Question: What about the GI50 (MDA-N) of the same compound?
Answer: > 10 µM (inactive)

Question: What about the GI50 (RXF 393) of the same compound?
Answer: > 10 µM (inactive)

Question: What about the GI50 (Malme-3M) of the same compound?
Answer: > 10 µM (inactive)

Question: And the GI50 (SN12C)?
Answer: > 10 µM (inactive)

Question: What about the GI50 (COLO 205) of the same compound?
Answer: > 10 µM (inactive)

Question: And the GI50 (MCF7)?
Answer: > 10 µM (inactive)

Question: And the GI50 (UACC-257)?
Answer: > 10 µM (inactive)

Question: And the GI50 (HCC 2998)?
Answer: > 10 µM (inactive)

Question: And the GI50 (SR)?
Answer: 8.75 µM (inactive)

Question: And the GI50 (SNB-75)?
Answer: > 10 µM (inactive)

Question: What about the GI50 (UACC-62) of the same compound?
Answer: > 10 µM (inactive)

Question: What about the GI50 (T47D) of the same compound?
Answer: > 10 µM (inactive)

Question: And the GI50 (CCRF-CEM)?
Answer: 6.93 µM (inactive)

Question: What about the GI50 (A549) of the same compound?
Answer: > 10 µM (inactive)

Question: And the GI50 (KM12)?
Answer: > 10 µM (inactive)

Question: And the GI50 (786-0)?
Answer: > 10 µM (inactive)

Question: And the GI50 (MOLT-4)?
Answer: 6.19 µM (inactive)

Question: And the GI50 (M14)?
Answer: > 10 µM (inactive)

Question: And the GI50 (SK-MEL-5)?
Answer: > 10 µM (inactive)

Question: What about the GI50 (SF-295) of the same compound?
Answer: > 10 µM (inactive)

Question: What about the GI50 (RPMI-8226) of the same compound?
Answer: > 10 µM (inactive)

Question: What about the GI50 (IGROV-1) of the same compound?
Answer: > 10 µM (inactive)

Question: What about the GI50 (PC-3) of the same compound?
Answer: > 10 µM (inactive)

Question: What about the GI50 (SK-OV-3) of the same compound?
Answer: > 10 µM (inactive)

Question: And the GI50 (CAKI-1)?
Answer: > 10 µM (inactive)

Question: What about the GI50 (HT-29) of the same compound?
Answer: > 10 µM (inactive)
